# Data: ChEMBL document CHEMBL5620381, “Design, synthesis and antitubercular activity of novel N-(amino)piperazinyl benzothiazinones with improved safety” (Eur J Med Chem, 2023)
# Columns and labels:
# [1] = tested on: Mycobacterium tuberculosis; assay: Antitubercular activity against multidrug resistant Mycobacterium tuberculosis 16883 incubated for 8 days by MABA; assay type: functional; conditions: Mycobacterium tuberculosis, 16883, 192 h; time 8 day
# [2] = tested on: Mycobacterium tuberculosis; assay: Antitubercular activity against multidrug resistant Mycobacterium tuberculosis 16995 incubated for 8 days by MABA; assay type: functional; conditions: Mycobacterium tuberculosis, 16995, 192 h; time 8 day
SMILES,MIC [1],MIC [2]
CC1CCC(N(C)N2CCN(c3nc(=O)c4cc(C(F)(F)F)cc([N+](=O)[O-])c4s3)CC2)CC1 (stereo not drawn),< 1 ng/mL,< 1 ng/mL
CC1CN(c2nc(=O)c3cc(C(F)(F)F)cc([N+](=O)[O-])c3s2)CCN1N(C)C1CCC(C)(C)CC1 (stereo not drawn),< 1 ng/mL,< 1 ng/mL
CN(C1CCC2(CCCCC2)CC1)N1CCN(c2nc(=O)c3cc(C(F)(F)F)cc([N+](=O)[O-])c3s2)CC1,< 1 ng/mL,< 1 ng/mL
CC1CN(c2nc(=O)c3cc(C(F)(F)F)cc([N+](=O)[O-])c3s2)CCN1N(C)C1CCCCC1 (stereo not drawn),< 1 ng/mL,< 1 ng/mL
CN(C1CCCCC1)N1CCN(c2nc(=O)c3cc(C(F)(F)F)cc([N+](=O)[O-])c3s2)CC1(C)C,< 1 ng/mL,< 1 ng/mL
CO[C@H]1/C=C/O[C@@]2(C)Oc3c(C)c(O)c4c(O)c(c(/C=N/N5CCN(C)CC5)c(O)c4c3C2=O)NC(=O)/C(C)=C\C=C\[C@H](C)[C@H](O)[C@@H](C)[C@@H](O)[C@@H](C)[C@H](OC(C)=O)[C@@H]1C [RIFAMPIN],> 20000 ng/mL,> 20000 ng/mL
CON=C1CCC(N(C)N2CCN(c3nc(=O)c4cc(C(F)(F)F)cc([N+](=O)[O-])c4s3)CC2(C)C)CC1 (stereo not drawn),125 ng/mL,15.7 ng/mL
CC1CCC(C)C(N(C)N2CCN(c3nc(=O)c4cc(C(F)(F)F)cc([N+](=O)[O-])c4s3)CC2)C1 (stereo not drawn),< 1 ng/mL,< 1 ng/mL
NNC(=O)c1ccncc1 [ISONIAZID],> 20000 ng/mL,> 20000 ng/mL
CC1CCC(NN2CCN(c3nc(=O)c4cc(C(F)(F)F)cc([N+](=O)[O-])c4s3)CC2)CC1 (stereo not drawn),< 1 ng/mL,< 1 ng/mL
CN(C1CCC(F)(F)CC1)N1CCN(c2nc(=O)c3cc(C(F)(F)F)cc([N+](=O)[O-])c3s2)CC1,< 1 ng/mL,< 1 ng/mL
O=c1nc(N2CCN(NC3CCCCCCC3)CC2)sc2c([N+](=O)[O-])cc(C(F)(F)F)cc12,< 1 ng/mL,< 1 ng/mL
O=c1nc(N2CCN(NC3CCC(F)(F)CC3)CC2)sc2c([N+](=O)[O-])cc(C(F)(F)F)cc12,3.15 ng/mL,4 ng/mL
CC1(C)CCC(NN2CCN(c3nc(=O)c4cc(C(F)(F)F)cc([N+](=O)[O-])c4s3)CC2)CC1,< 1 ng/mL,< 1 ng/mL
CN(C1CCCCCCC1)N1CCN(c2nc(=O)c3cc(C(F)(F)F)cc([N+](=O)[O-])c3s2)CC1,< 1 ng/mL,< 1 ng/mL
CN(C1CCC(C)(C)CC1)N1CCN(c2nc(=O)c3cc(C(F)(F)F)cc([N+](=O)[O-])c3s2)CC1(C)C,< 1 ng/mL,< 1 ng/mL
CC1CCCCC1N(C)N1CCN(c2nc(=O)c3cc(C(F)(F)F)cc([N+](=O)[O-])c3s2)CC1 (stereo not drawn),< 1 ng/mL,< 1 ng/mL
CN(C1CCC(C)(C)CC1)N1CCN(c2nc(=O)c3cc(C(F)(F)F)cc([N+](=O)[O-])c3s2)CC1,< 1 ng/mL,< 1 ng/mL
CN(C1CCC(=NOC(C)(C)C)CC1)N1CCN(c2nc(=O)c3cc(C(F)(F)F)cc([N+](=O)[O-])c3s2)CC1 (stereo not drawn),5.25 ng/mL,12.8 ng/mL
CON=C1CCC(N(C)N2CCN(c3nc(=O)c4cc(C(F)(F)F)cc([N+](=O)[O-])c4s3)CC2C)CC1 (stereo not drawn),6.65 ng/mL,14.9 ng/mL
CON=C1CCC(N(C)N2CCN(c3nc(=O)c4cc(C(F)(F)F)cc([N+](=O)[O-])c4s3)CC2)CC1 (stereo not drawn),< 1 ng/mL,< 1 ng/mL
O=c1nc(N2CCN(CC3CCCCC3)CC2)sc2c([N+](=O)[O-])cc(C(F)(F)F)cc12 [MACOZINONE],< 1 ng/mL,< 1 ng/mL
CC1CC(N(C)N2CCN(c3nc(=O)c4cc(C(F)(F)F)cc([N+](=O)[O-])c4s3)CC2)CC(C)(C)C1 (stereo not drawn),< 1 ng/mL,< 1 ng/mL
CN(C1C2CC3CC(C2)CC1C3)N1CCN(c2nc(=O)c3cc(C(F)(F)F)cc([N+](=O)[O-])c3s2)CC1 (stereo not drawn),< 1 ng/mL,1.5 ng/mL
CCON=C1CCC(N(C)N2CCN(c3nc(=O)c4cc(C(F)(F)F)cc([N+](=O)[O-])c4s3)CC2)CC1 (stereo not drawn),11.4 ng/mL,11.2 ng/mL
CN(C1CCCCC1)N1CCN(c2nc(=O)c3cc(C(F)(F)F)cc([N+](=O)[O-])c3s2)CC1,< 1 ng/mL,< 1 ng/mL
O=c1nc(N2CCN(NC3CCCCC3)CC2)sc2c([N+](=O)[O-])cc(C(F)(F)F)cc12,< 1 ng/mL,< 1 ng/mL
CC1CCCCC1NN1CCN(c2nc(=O)c3cc(C(F)(F)F)cc([N+](=O)[O-])c3s2)CC1 (stereo not drawn),< 1 ng/mL,< 1 ng/mL
CN(CC1CCC(F)(F)CC1)N1CCN(c2nc(=O)c3cc(C(F)(F)F)cc([N+](=O)[O-])c3s2)CC1,< 1 ng/mL,< 1 ng/mL
